The values that follow come from US6897316B2, “Substituted 2-phenyl-4-quinolone-3-carboxylic acid compounds and their use as antitumor agents” (China Medical University, priority 2003, dated 2005).

The subject of one assay is HGC2998 (colon cancer). Briefly: Growth inhibition in human cancer cell line panel, HGC2998. As to conditions: 48 hr, SRB. Format: cell-based. Here is the method:
(§1) Compound IX-8 was evaluated growth inhibition activities against a panel of 39 human cancer cell lines including Human breast cancer MDA-MB-231 and the following human cancer cell lines were generously distributed by the National Cancer Institute (Frederick, Md.): lung cancer, NCI-H23, NCI-H226, NCI-H522, NCI-H460, A-549, DMS273 and DMS114; colon cancer, HGC-2998, KM-12, HT-29, HCT-15, and HCT-116; ovarian cancer, OVCAR-3, OVCAR-4, OVCAR-5, OVCAR-8, and SKOV-3; breast cancer, MCF-7; renal cancer, RXF-631L and ACHN; melanoma, LOX-IMVI; brain tumor, U251, SF-295, SF-539, SF-268, SNB-75, and SNB-78, and prostate cancer, DU-145 and PC-3. […]
(§2) The details of measuring cell growth inhibition are described elsewhere [Monks, A., Scudiero, D., Skehan, P., Shoemaker, R., Paull, K., Vistica, D., Hose, C., Langley, J., Cronise, P., Vaigro-Wolff, A., Gray-Goodrich, M., Campbell, H., Mayo, J., Boyd, M. Feasibility of a high-flux anticancer drug screen using a diverse panel of cultured human tumor cell lines. […] Then, the cell growth was determined according to the Sulforhodamine B assay, described by Skehan et al [Skehan, P., Storeng, R., Scudiero, D., Monks, A., McMahon, J., Vistica, D., Warren, J. T., Bokesch, H., Kenney, S., Boyd, M. R. New calorimetric cytotoxicity assay for anticancer-drug screening. […]

The test system of assay [1] is panel of 39 human cancer cell lines. Briefly: Growth inhibition against human cancer cell line panel (Sulforhodamine B, 48 h). Format: cell-based. As for the experimental part:
as §1, §2

In the assay with HGC2998 (colon cancer), `COc1ccc2[nH]c(-c3cccc(F)c3)c(C(=O)O)c(=O)c2c1` [IX-8, 3′-Fluoro-6-methoxy-2-phenyl-4-quinolone-3-carboxylic acid] gave a 50% growth inhibitory concentration (GI50) of 138 nM. Besides, the “activity against cancer cell line panel in words” value in assay [1] (cell line panel) is listed as “active against most cancer cell lines”. Further, the “MG-MID (mean growth midpoint) of log GI50” value in assay [1] (mean over cell line panel, 10^−4 to 10^−8 M) is −6.22 M.

As a reminder, the GI50 is the concentration that inhibits growth by half. The low end stands for greater sensitivity of the cells, the high end for lower sensitivity of the cells.
